# Reference: patent US7192924B2, “Corticotropin releasing factor 2 receptor agonists” (priority 2002, dated 2007)
# Where two headings read alike, the source gives them in different places. Ends that are not written are not given here. Peptide text beside a SMILES is read from it.
# Assays:
# CRF1R = target: T1, CRF1R (Homo sapiens, UniProt P34998); assay: CRF1R agonist activity (EC50, Emax), called comparative CRF binding; assay type: cell-based
# T1 sequence (P34998 24-415): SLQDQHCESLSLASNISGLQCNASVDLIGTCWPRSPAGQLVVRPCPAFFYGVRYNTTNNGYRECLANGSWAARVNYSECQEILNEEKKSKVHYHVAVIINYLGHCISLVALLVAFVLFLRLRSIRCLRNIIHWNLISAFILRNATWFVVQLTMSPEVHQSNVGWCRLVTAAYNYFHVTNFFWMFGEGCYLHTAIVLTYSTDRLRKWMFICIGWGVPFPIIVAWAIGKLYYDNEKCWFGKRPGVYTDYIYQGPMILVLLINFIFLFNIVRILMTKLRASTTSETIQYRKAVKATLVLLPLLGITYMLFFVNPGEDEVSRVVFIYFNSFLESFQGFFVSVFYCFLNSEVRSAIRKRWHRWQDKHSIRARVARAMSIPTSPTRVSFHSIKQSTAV
# Method in brief: (§1)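 Agonism is judged from increased cAMP, measured either directly in lysates or through reporter genes under a cAMP responsive element. Cells or membranes express only the receptor of interest, and vehicle-treated cells serve as control.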
# CRF2R = target: T2, CRF2R (Homo sapiens, UniProt Q13324); assay: CRF2R agonist activity (EC50, Emax), called comparative CRF binding; assay type: cell-based
# T2 sequence (Q13324 1-411): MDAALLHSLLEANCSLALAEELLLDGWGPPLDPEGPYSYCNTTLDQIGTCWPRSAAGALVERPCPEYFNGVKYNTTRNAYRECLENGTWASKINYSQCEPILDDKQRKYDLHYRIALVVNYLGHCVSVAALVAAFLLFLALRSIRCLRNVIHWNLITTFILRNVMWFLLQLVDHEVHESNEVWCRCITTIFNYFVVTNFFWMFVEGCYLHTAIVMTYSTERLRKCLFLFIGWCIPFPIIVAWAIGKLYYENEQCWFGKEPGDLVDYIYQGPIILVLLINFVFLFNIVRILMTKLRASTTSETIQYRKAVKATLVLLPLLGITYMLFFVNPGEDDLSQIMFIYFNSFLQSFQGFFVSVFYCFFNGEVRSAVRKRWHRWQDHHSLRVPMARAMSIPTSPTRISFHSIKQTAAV
# Method in brief: as §1
Compound,EC50 (CRF1R; read-out: CRF1R EC50) [nM],EC50 (CRF2R; read-out: CRF2R EC50) [nM],EC50 (CRF1R) [nM],EC50 (CRF2R) [nM]
CC[C@H](C)[C@H](N)C(=O)N[C@H](C(=O)N[C@@H](CC(C)C)C(=O)N[C@@H](CO)C(=O)N[C@@H](CC(C)C)C(=O)N[C@@H](CC(=O)O)C(=O)N[C@H](C(=O)N1CCC[C@H]1C(=O)N[C@H](C(=O)NCC(=O)N[C@@H](CC(C)C)C(=O)N[C@@H](CC(C)C)C(=O)N[C@@H](CCC(N)=O)C(=O)N[C@H](C(=O)N[C@@H](CC(C)C)C(=O)N[C@@H](CC(C)C)C(=O)N[C@@H](CCC(=O)O)C(=O)N[C@@H](CCC(N)=O)C(=O)N[C@@H](CCC(=O)O)C(=O)N[C@@H](CCCNC(=N)N)C(=O)N[C@@H](CCC(N)=O)C(=O)N[C@@H](CCCNC(=N)N)C(=O)N[C@@H](C)C(=O)N[C@@H](C)C(=O)N[C@@H](CCCNC(=N)N)C(=O)N[C@@H](CCC(=O)O)C(=O)N[C@@H](CCC(N)=O)C(=O)N[C@@H](C)C(=O)N[C@H](C(=O)N[C@H](C(=O)N[C@@H](CC(N)=O)C(=O)N[C@@H](C)C(=O)N[C@@H](CCCNC(=N)N)C(=O)N[C@H](C(=O)N[C@@H](CC(C)C)C(=O)N[C@@H](C)C(=O)N[C@@H](CCCNC(=N)N)C(=O)N[C@H](C(N)=O)C(C)C)[C@@H](C)CC)[C@@H](C)O)[C@@H](C)O)[C@@H](C)CC)[C@@H](C)CC)C(C)C)C(C)C [compound 111] (H-IVLSLDVPIGLLQILLEQERQRAAREQATTNARILARV-NH2; N-terminus assumed),> 100,11,,
CC[C@H](C)[C@H](NC(=O)[C@H](C)NC(=O)[C@H](CC(N)=O)NC(=O)[C@H](CCC(N)=O)NC(=O)[C@H](CCC(=O)O)NC(=O)[C@H](C)NC(=O)[C@H](CCCNC(=N)N)NC(=O)[C@H](CCC(=O)O)NC(=O)[C@H](CCCNC(=N)N)NC(=O)[C@H](CCC(N)=O)NC(=O)[C@H](CO)NC(=O)[C@H](CCC(N)=O)NC(=O)[C@@H](NC(=O)[C@H](CCCCN)NC(=O)[C@H](CCC(=O)O)NC(=O)[C@H](CC(C)C)NC(=O)[C@H](CCC(=O)O)NC(=O)[C@H](CC(C)C)NC(=O)[C@H](CC(C)C)NC(=O)[C@@H](NC(=O)[C@H](CCCNC(=N)N)NC(=O)[C@H](CC(C)C)NC(=O)[C@H](CC(C)C)NC(=O)[C@H](CC(C)C)NC(=O)[C@H](CC(C)C)NC(=O)[C@@H]1CCCN1C(=O)[C@H](CC(C)C)NC(=O)[C@H](CC(=O)O)NC(=O)[C@@H](NC(=O)[C@H](CO)NC(=O)[C@H](CC(C)C)NC(=O)[C@H](CO)NC(=O)[C@@H]1CCCN1)[C@@H](C)CC)[C@@H](C)O)[C@@H](C)O)C(=O)N[C@H](C(=O)N[C@@H](Cc1ccccc1)C(=O)N[C@@H](C)C(=O)N[C@@H](CO)C(=O)N[C@H](C(N)=O)C(C)C)[C@@H](C)CC [compound 344] (H-PSLSIDLPLLLLRTLLELEKTQSQRERAEQNAIIFASV-NH2),650,4.3,,
CC[C@H](C)[C@H](N)C(=O)N[C@H](C(=O)N[C@@H](CC(C)C)C(=O)N[C@@H](CO)C(=O)N[C@@H](CC(C)C)C(=O)N[C@@H](CC(=O)O)C(=O)N[C@H](C(=O)N1CCC[C@H]1C(=O)N[C@H](C(=O)NCC(=O)N[C@@H](CC(C)C)C(=O)N[C@@H](CC(C)C)C(=O)N[C@@H](CCC(N)=O)C(=O)N[C@H](C(=O)N[C@@H](CC(C)C)C(=O)N[C@@H](CC(C)C)C(=O)N[C@@H](CCC(=O)O)C(=O)N[C@@H](CCC(N)=O)C(=O)N[C@@H](CCC(=O)O)C(=O)N[C@@H](CCCNC(=N)N)C(=O)N[C@@H](CCC(N)=O)C(=O)N[C@@H](CCC(=O)O)C(=O)N[C@@H](C)C(=O)N[C@@H](C)C(=O)N[C@@H](CCCNC(=N)N)C(=O)N[C@@H](CCC(=O)O)C(=O)N[C@@H](CCC(N)=O)C(=O)N[C@@H](C)C(=O)N[C@H](C(=O)N[C@H](C(=O)N[C@@H](CC(N)=O)C(=O)N[C@@H](C)C(=O)N[C@@H](CCCNC(=N)N)C(=O)N[C@H](C(=O)N[C@@H](CC(C)C)C(=O)N[C@@H](C)C(=O)N[C@@H](CCCNC(=N)N)C(=O)N[C@H](C(N)=O)C(C)C)[C@@H](C)CC)[C@@H](C)O)[C@@H](C)O)[C@@H](C)CC)[C@@H](C)CC)C(C)C)C(C)C [compound 118] (H-IVLSLDVPIGLLQILLEQERQEAAREQATTNARILARV-NH2; N-terminus assumed),> 100,14.6,,
CC[C@H](C)[C@H](N)C(=O)N[C@H](C(=O)N[C@@H](CC(C)C)C(=O)N[C@@H](CO)C(=O)N[C@@H](CC(C)C)C(=O)N[C@@H](CC(=O)O)C(=O)N[C@H](C(=O)N1CCC[C@H]1C(=O)N[C@H](C(=O)N[C@@H](Cc1c[nH]cn1)C(=O)N[C@@H](CC(C)C)C(=O)N[C@@H](CC(C)C)C(=O)N[C@@H](CCC(N)=O)C(=O)N[C@H](C(=O)N[C@@H](CC(C)C)C(=O)N[C@@H](CC(C)C)C(=O)N[C@@H](CCC(=O)O)C(=O)N[C@@H](CCC(N)=O)C(=O)N[C@@H](C)C(=O)N[C@@H](CCCNC(=N)N)C(=O)N[C@@H](C)C(=O)N[C@@H](CCCNC(=N)N)C(=O)N[C@@H](C)C(=O)N[C@@H](C)C(=O)N[C@@H](CCCNC(=N)N)C(=O)N[C@@H](CCC(=O)O)C(=O)N[C@@H](CCC(N)=O)C(=O)N[C@@H](C)C(=O)N[C@H](C(=O)N[C@H](C(=O)N[C@@H](CC(N)=O)C(=O)N[C@@H](C)C(=O)N[C@@H](CCCNC(=N)N)C(=O)N[C@H](C(=O)N[C@@H](CC(C)C)C(=O)N[C@@H](C)C(=O)N[C@@H](CCCNC(=N)N)C(=O)N[C@H](C(N)=O)C(C)C)[C@@H](C)CC)[C@@H](C)O)[C@@H](C)O)[C@@H](C)CC)[C@@H](C)CC)C(C)C)C(C)C [compound 371] (H-IVLSLDVPIHLLQILLEQARARAAREQATTNARILARV-NH2; N-terminus assumed),≥ 1000,6.62,,
CC[C@H](C)[C@H](NC(=O)[C@H](C)NC(=O)[C@H](CC(N)=O)NC(=O)[C@H](CCC(N)=O)NC(=O)[C@H](CCC(=O)O)NC(=O)[C@H](C)NC(=O)[C@H](CCCNC(=N)N)NC(=O)[C@H](CCC(=O)O)NC(=O)[C@H](CCCNC(=N)N)NC(=O)[C@H](CCC(N)=O)NC(=O)[C@H](CO)NC(=O)[C@H](CCC(N)=O)NC(=O)[C@@H](NC(=O)[C@H](CCCCN)NC(=O)[C@H](CCC(=O)O)NC(=O)[C@H](CC(C)C)NC(=O)[C@H](CCC(=O)O)NC(=O)[C@H](CC(C)C)NC(=O)[C@H](CC(C)C)NC(=O)[C@@H](NC(=O)[C@H](CCCNC(=N)N)NC(=O)[C@H](CC(C)C)NC(=O)[C@H](CC(C)C)NC(=O)[C@H](CC(C)C)NC(=O)[C@H](CC(C)C)NC(=O)[C@@H]1CCCN1C(=O)[C@H](CC(C)C)NC(=O)[C@H](CC(=O)O)NC(=O)[C@@H](NC(=O)[C@H](CO)NC(=O)[C@H](CC(C)C)NC(=O)[C@H](CO)NC(=O)[C@@H]1CCCN1C(=O)[C@H](CC(N)=O)NC(=O)[C@@H](N)CC(=O)O)[C@@H](C)CC)[C@@H](C)O)[C@@H](C)O)C(=O)N[C@H](C(=O)N[C@@H](Cc1ccccc1)C(=O)N[C@@H](C)C(=O)N[C@@H](CO)C(=O)N[C@H](C(N)=O)C(C)C)[C@@H](C)CC [compound 347] (H-DNPSLSIDLPLLLLRTLLELEKTQSQRERAEQNAIIFASV-NH2),≥ 1000,22.4,,
NDDPPISIDLPLFLLRNMIEMARIENEREQAGLNAKYLAEV-NH2 [compound 257],745,≥ 100,,
NDDPPISIDLPFHLLRNMIEMARIENEREQAGLNAKYLAEV-NH2 [compound 262],408,≥ 100,,
CC[C@H](C)[C@H](N)C(=O)N[C@H](C(=O)N[C@@H](CC(C)C)C(=O)N[C@@H](CO)C(=O)N[C@@H](CC(C)C)C(=O)N[C@@H](CC(=O)O)C(=O)N[C@H](C(=O)N1CCC[C@H]1C(=O)N[C@H](C(=O)NCC(=O)N[C@@H](CC(C)C)C(=O)N[C@@H](CC(C)C)C(=O)N[C@@H](CCC(N)=O)C(=O)N[C@H](C(=O)N[C@@H](CC(C)C)C(=O)N[C@H](C(=O)N[C@@H](CCC(=O)O)C(=O)N[C@H](C(=O)N[C@@H](CCC(=O)O)C(=O)N[C@@H](CCCCN)C(=O)N[C@@H](CCC(N)=O)C(=O)N[C@@H](CCC(=O)O)C(=O)N[C@@H](CCCCN)C(=O)N[C@@H](CCC(=O)O)C(=O)N[C@@H](CCCCN)C(=O)N[C@@H](CCC(N)=O)C(=O)N[C@@H](CCC(N)=O)C(=O)N[C@@H](C)C(=O)N[C@@H](C)C(=O)N[C@@H](CC(N)=O)C(=O)N[C@@H](CC(N)=O)C(=O)N[C@@H](CCCNC(=N)N)C(=O)N[C@@H](CC(C)C)C(=O)N[C@@H](CC(C)C)C(=O)N[C@@H](CC(C)C)C(=O)N[C@@H](CC(=O)O)C(=O)N[C@H](C(=O)N[C@H](C(N)=O)[C@@H](C)CC)[C@@H](C)O)[C@@H](C)CC)[C@@H](C)CC)[C@@H](C)CC)[C@@H](C)CC)C(C)C)C(C)C [compound 154] (H-IVLSLDVPIGLLQILIEIEKQEKEKQQAANNRLLLDTI-NH2; N-terminus assumed),,,> 100,10.3
NDDPPISIDLPFYLLRNMIEMARIENEREQAGLNAKYLAEV-NH2 [compound 261],274,≥ 100,,
